Data published in patent US20110251158A1, “FULLERENE THERAPIES FOR INFLAMMATION AND INHIBITION OF BUILD-UP OF ARTERIAL PLAQUE” (Luna Innovations Incorporated, priority 2008, published 2011).

Key:
mice = assay: Liver toxicity: serum ALT and AST activity after FD injection; format: in vivo; conditions: tail vein injection
Experimental: To examine potential toxicity, alanine aminotranferease (ALT) and aspartate aminotransferase (AST) were measured in serum. These enzymes leak out into the general circulation when the liver is injured. Mice were treated with or without 1000 μg/100 μl (50 times more than used for the in vivo study) of TGA or Inos by tail vein injection and i.p. After two and 14 days mice were sacrificed and blood, obtained by cardiac puncture. ALT and AST activity were measured as described in Booth, G., Newham, P., Barlow, R., Raines, S., Zheng, B., and Han, S. Autoimmunity 41, 512-521 (2008). Data is presented as an average of 4 (Untreated) or 4 (Treated) mice±Standard Deviation.

[1] = test system: Peripheral blood basophils (PBB); assay: Anti-IgE-induced IL-13 secretion from PBB (ELISA); format: cell-based, human; conditions: for Mean % Inhibition of IL-13 Secretion: 15 ng/ml anti-IgE
Experimental: PBB were obtained from two sources: donors recruited under an IRB-approved protocol after informed consent or from leukopheresis packs obtained from the Johns Hopkins Hemapheresis Center. PBB were purified to ≧99% purity as described in Vonakis, B. M., Gibbons S Jr, Sora, R., Langdon, J. M., and MacDonald, S. M. J. Allergy Clin. Immunol. 108, 822-831 (2001), and Miura, K., Saini, S. S., Gauvreau, G., and MacGlashan, D. W., Jr. J. Immunol. 167, 2282-2291 (2001). Purified PBB were incubated overnight (20 hours) with a fullerene derivative (5 μg/ml) or vehicle control and a minimal (non-stimulatory) concentration of IL-3 (2 pg/ml) to prevent apoptosis. The next day, cells were washed and aliquoted for the histamine release assay by treatment with 0.1 mg/ml of goat polyclonal anti-IgE, buffer alone (spontaneous release) or perchloric acid (total histamine determination). Histamine was quantified in cell free supernatants using automated fluorimetry in duplicate. In a second set of experiments the two fullerene derivatives (at 5 μg/ml) were incubated with PBB for 20 hours, washed cells stimulated with 15 ng/ml anti-IgE for 18 hours in duplicate and supernatants collected for quantification of IL-13 by in-house ELISA. The optimal doses of anti-IgE are chosen for activation of PBB.

Mast cells (MC) = assay: Anti-FcεRI-induced GM-CSF cytokine production in MC; format: cell-based, human; conditions: maximum inhibition set to 100%
Experimental: MC are a component of the inflammatory response. As such, cultures of human Mast Cells can be used for screening the activity of different fullerene derivatives to evaluate their potential activity in animal models. In this example, human skin tissue was received from the Cooperative Human Tissue Network and MC purified and cultured as described in Kepley, C. L. Int. Arch. Allergy Immunol. 138, 29-39 (2005). The MC were cultured in media containing stem cell factor which is removed from the culture 24 hours prior to experimentation.
For activation, MC were suspended in fresh medium (without cytokines) and incubated for 16 hours with or without fullerene derivatives at 37° C. in a 6% CO2 incubator. […] The next morning, cells were washed and stimulated with anti-FcεRI Abs (3B4; 1 μg/ml) for 30 minutes (β-hexosaminidase) or overnight (GM-CSF) at 37° C. in a 6% CO2 incubator and mediator release measured as described in Zhao, W., Kepley, C. […]
Cells were cultured with fixed concentrations of a fullerene derivative (10 μg/ml; FIGS. 8A and 9A) or different concentrations (FIGS. 8B and 9B) for 16 h, washed and stimulated for 30 min (FIGS. 8A and 8B) or 24 hours (FIGS. 9A and 9B) with optimal concentrations of αanti-FcεRI Abs (3B4; 1 μg/ml). Cells were centrifuged and β-hexosaminidase release and GMCSF levels determined by ELISA.

Fyn = Fyn protein level in MC; format: cell-based, human; conditions: pre-incubated with TGA
Experimental: Mast cells (1×10^7 cell/condition; each condition performed in triplicate) were incubated with or without fullerene derivatives as above and incubated with or without anti-FcεRI antibodies for 10 minutes, supernatants were removed (to remove pre-formed mediators), and fresh warm medium containing anti-FcεRI antibodies (14 ml) added for 2 hours. Cells were centrifuged, the supernatant and the pellet immediately frozen and microarray performed using the Human Whole Genome OneArray™ gene expression profiling service (Phalanx Biotech Group). Separate samples, assayed in parallel were lysed and protein expression analyzed by Western blotting or flow cytometry (CD45) as described in Kepley, C. L., Pfeiffer, J., Wilson, B. W., Schwartz, L. B., and Oliver, J. M. J. Leukocyte Biol. 64, 474-483 (1998).
Downregulation observed at the gene level was verified at the protein level for several representative molecules using Western blotting or flow cytometry.

[2] = test system: intracellular calcium stores release; assay: FcεRI-induced intracellular calcium (Fura-2) in MC; format: cell-based, human; conditions: 10 μg/mL overnight; anti-FcεRI 1 μg/mL
Experimental: MC were pre-treated with or without fullerene derivatives as above, washed with Tyrodes buffer supplemented with BSA, and incubated with Fura-2 AM (2 μM) for 30 minutes at 37° C. Cells were washed, stimulated with anti-FcεRI, and calcium flux measured in real time on a Perkin Elmer LS55 Spectrofluorometer. For ROS production, cells were exposed to fullerene derivatives as above. After washing, cells were re-suspended in X-Vivo medium containing 5 μM dichlorodihydrofluorescein (DCF) at 37° C. for 30 minutes, washed, and activation-induced changes in mean fluorescence was measured with excitation at 502 nm and emission at 523 nm for 15 minutes (19). The data is presented as fluorescence intensity of the 523 nm emission over time. All experiments were performed in triplicate and degranulation was measured in parallel.
Cells were incubated with or without fullerene derivative (10 μg/mL) overnight. The next day cells were challenged with anti-FcεRI (3B4; 1 μg/mL) and calcium stores release was determined by the 340/380 nm ratio (FIGS. 11A and 11B) and ROS measured by DCF detection at 523 nm (FIGS. 11C and 11D). FIGS. 11A and 11C contain cells incubated with the TGA fullerene derivative, and FIGS. 11B and 11D contain cells incubated with the Inos fullerene derivative (10 μg/mL). […]

MC-induced anaphylaxis = assay: MC-dependent anaphylaxis model: core body temperature; format: in vivo, mice (C57BL/6J); conditions: 100 ng i.p. before DNP-BSA challenge

With C70-tetraglycolic acid [TGA] the “Alanine aminotransferase (ALT) Activity” value (mice; Day 2) was 29.2, the “Aspartate aminotransferase (AST) Activity” value (mice; Day 2) was 8.5 and the “Alanine aminotransferase (ALT) Activity” value (mice; Day 14) was 36.7. The “Aspartate aminotransferase (AST) Activity” value (mice; Day 14) was 29.8, the “FD + anti-IgE (mean ± SEM, ng/ml), IL-13” value ([1]; 5 μg/ml FD, 20 hours, 15 ng/ml anti-IgE 18 hours) was 79.3 ± 20.9 ng/mL and the “Mean % Inhibition of IL-13 Secretion” value ([1]; 5 μg/ml FD, listed as C70-TGA) was 52.4%. The “Mean % Inhibition of IL-13 Secretion” value ([1]; 5 μg/ml FD, listed as C70-tetraglucolate) was “significant inhibition”, the “IC50 (IL-13-cytokine production)” value ([1]; PBB, maximum inhibition set to 100%) was 10.6 µg/mL and the “maximal inhibition of anti-IgE stimulated IL-13 secretion” value ([1]; detected at 0.5 μg/ml, mean, n=2) was 37.4%. The “IC50 (GMCSF-cytokine production)” value (Mast cells (MC)) was 3.3 (±0.6) μg/ml, the Fyn protein levels (Fyn) was “no change” and the “FcεRI-induced intracellular calcium stores release” value [2] was “inhibited”. For the same substance, the “anaphylactic-induced drop in core body temperature” value (MC-induced anaphylaxis) was “significant reduction”.
